Legend:
[1] = target: T1, EGFR L858R/T790M/C797S (BaF3-LTC cells) (Homo sapiens, UniProt P00533, C797S/L858R/T790M); assay: EGFR degradation HTRF assay, BaF3-LTC cells; format: cell-based; conditions: BaF3-LTC, 16h treatment; for Dmax: maximum percentage of degradation, read-out: LTC Dmax (%); for DC50: read-out: LTC DC50
T1 construct: expressed in transfected cells; host or cells: BaF3
How it was run: (§1)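 EGFR remaining after a 16 h, 37 °C exposure (8 doses, 5-fold steps from 10 uM final, 0.2% DMSO) was quantified by HTRF antibodies in cell lysate. Percent inhibition relative to DMSO control was fitted by four-parameter logistic to give DC50; Dmax denotes maximal degradation.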

[2] = system: EGFR Del19/T790M/C797S (BaF3-DTC cells); assay: EGFR degradation HTRF assay, BaF3-DTC cells; format: cell-based; conditions: 16h treatment; for DTC Dmax (%): maximum percentage of degradation; for DC50: read-out: DTC DC50
How it was run: as §1

T1 sequence (P00533 25-1210 T790M/C797S/L858R): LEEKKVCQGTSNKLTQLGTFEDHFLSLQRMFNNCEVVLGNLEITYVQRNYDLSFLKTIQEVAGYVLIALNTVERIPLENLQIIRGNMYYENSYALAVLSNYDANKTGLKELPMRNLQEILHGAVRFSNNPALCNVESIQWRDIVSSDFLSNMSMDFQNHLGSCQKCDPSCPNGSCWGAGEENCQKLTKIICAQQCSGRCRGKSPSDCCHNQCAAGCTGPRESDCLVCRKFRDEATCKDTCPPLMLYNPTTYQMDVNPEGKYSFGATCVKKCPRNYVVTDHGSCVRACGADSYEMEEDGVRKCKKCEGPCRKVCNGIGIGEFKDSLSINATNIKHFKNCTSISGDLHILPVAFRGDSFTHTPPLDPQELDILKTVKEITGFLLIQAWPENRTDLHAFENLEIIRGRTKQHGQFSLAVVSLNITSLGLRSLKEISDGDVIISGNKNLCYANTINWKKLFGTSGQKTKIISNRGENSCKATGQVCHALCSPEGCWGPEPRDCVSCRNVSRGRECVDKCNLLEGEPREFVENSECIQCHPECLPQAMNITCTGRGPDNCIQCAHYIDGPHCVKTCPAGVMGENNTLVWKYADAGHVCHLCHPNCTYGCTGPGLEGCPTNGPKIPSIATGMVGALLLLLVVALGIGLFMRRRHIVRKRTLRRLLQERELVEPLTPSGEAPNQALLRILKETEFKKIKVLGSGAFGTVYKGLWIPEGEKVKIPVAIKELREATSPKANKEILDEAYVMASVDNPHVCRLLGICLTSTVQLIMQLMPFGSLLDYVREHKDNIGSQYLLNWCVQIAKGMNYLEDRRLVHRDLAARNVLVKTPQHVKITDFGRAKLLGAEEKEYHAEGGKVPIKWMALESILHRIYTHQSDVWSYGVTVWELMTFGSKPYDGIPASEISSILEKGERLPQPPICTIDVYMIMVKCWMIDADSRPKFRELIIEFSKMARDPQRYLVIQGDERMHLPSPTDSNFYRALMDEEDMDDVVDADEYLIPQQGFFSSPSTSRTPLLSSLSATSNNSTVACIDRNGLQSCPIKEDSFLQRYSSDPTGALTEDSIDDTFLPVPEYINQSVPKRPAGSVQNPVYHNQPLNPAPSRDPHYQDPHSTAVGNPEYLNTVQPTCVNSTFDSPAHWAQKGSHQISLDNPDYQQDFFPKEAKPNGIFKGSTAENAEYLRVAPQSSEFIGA

| SMILES | Dmax [1] [%] | DC50 [1] [nM] | DC50 [2] [nM] | DTC Dmax (%) [2] [%] |
| --- | --- | --- | --- | --- |
| CCc1cc(Nc2ncc(Br)c(Nc3ccc4nccnc4c3P(C)(C)=O)n2)c(OC)cc1N1CCC(N2CCN(CCc3cc(F)c(C4CCC(=O)NC4=O)cc3F)CC2)CC1 (stereo not drawn) [Example 233, 3-(4-(2-(4-(1-(4-((5-bromo-4-((5-(dimethylphosphoryl)quinoxalin-6-yl)amino)pyrimidin-2-yl)amino)-2-ethyl-5-methoxyphenyl)piperidin-4-yl)piperazin-1-yl)ethyl)-2,5-difluorophenyl)piperidine-2,6-dione] | 80.6 | 35.3 | 13.1 | 86.57 |
| CCc1cc(Nc2ncc(Br)c(Nc3ccc4nccnc4c3P(C)(C)=O)n2)c(OC)cc1N1CCC(N2CCN(C(=O)C3CN(c4cccc(C5CCC(=O)NC5=O)c4)C3)CC2)CC1 (stereo not drawn) [Example 230, 3-(3-(3-(4-(1-(4-((5-bromo-4-((5-(dimethylphosphoryl)quinoxalin-6-yl)amino)pyrimidin-2-yl)amino)-2-ethyl-5-methoxyphenyl)piperidin-4-yl)piperazine-1-carbonyl)azetidin-1-yl)phenyl)piperidine-2,6-dione] | 72 | 19.8 | 9.11 | 73.42 |
| CCc1cc(Nc2ncc(Br)c(Nc3ccc4ncccc4c3P(C)(C)=O)n2)c(OC)cc1N1CCC(N2CCN(CCC3CCN(c4cc(F)c(C5CCC(=O)NC5=O)c(F)c4)CC3)CC2)CC1 (stereo not drawn) [Example 202, 3-(4-(4-(2-(4-(1-(4-((5-bromo-4-((5-(dimethylphosphoryl)quinolin-6-yl)amino)pyrimidin-2-yl)amino)-2-ethyl-5-methoxyphenyl)piperidin-4-yl)piperazin-1-yl)ethyl)piperidin-1-yl)-2,6-difluorophenyl)piperidine-2,6-dione] | 87.8 | 18.5 | 7.6 | 93.39 |
| CCc1cc(Nc2ncc(Br)c(Nc3ccc4nc(C)ccc4c3P(C)(C)=O)n2)c(OC)cc1N1CCC(N2CCN(CCc3ccc4c(cnn4C4CCC(=O)NC4=O)c3)CC2)CC1 (stereo not drawn) [Example 211, 3-(5-(2-(4-(1-(4-((5-bromo-4-((5-(dimethylphosphoryl)-2-methylquinolin-6-yl)amino)pyrimidin-2-yl)amino)-2-ethyl-5-methoxyphenyl)piperidin-4-yl)piperazin-1-yl)ethyl)-1H-indazol-1-yl)piperidine-2,6-dione] | 91.4 | 4.75 | 2.72 | 94.88 |
| CCc1cc(Nc2ncc(Br)c(Nc3ccc4nccnc4c3P(C)(C)=O)n2)c(OC)cc1N1CCN(C2CCN(C3CCC(c4ccc(C5CCC(=O)NC5=O)cc4)C3)CC2)CC1 (stereo not drawn) [Example 178, 3-(4-(3-(4-(4-(4-((5-bromo-4-((5-(dimethylphosphoryl)quinoxalin-6-yl)amino)pyrimidin-2-yl)amino)-2-ethyl-5-methoxyphenyl)piperazin-1-yl)piperidin-1-yl)cyclopentyl)phenyl)piperidine-2,6-dione] | 83.5 | 71.8 | 44.4 | 81.18 |
| CCc1cc(Nc2ncc(Br)c(Nc3ccc4nc(C)ccc4c3P(C)(C)=O)n2)c(OC)cc1N1CCC(N2CCN(CCc3ccc4nn(C5CCC(=O)NC5=O)cc4c3)CC2)CC1 (stereo not drawn) [Example 257, 3-(5-(2-(4-(1-(4-((5-bromo-4-((5-(dimethylphosphoryl)-2-methylquinolin-6-yl)amino)pyrimidin-2-yl)amino)-2-ethyl-5-methoxyphenyl)piperidin-4-yl)piperazin-1-yl)ethyl)-2H-indazol-2-yl)piperidine-2,6-dione] | 90.7 | 17.4 | 3.94 | 93.75 |
| CCc1cc(Nc2ncc(Cl)c(Nc3ccc4nccnc4c3P(C)(C)=O)n2)c(OC)cc1N1CCC(N2CCN(CCC3CCN(c4cc(F)c(C5CCC(=O)NC5=O)c(F)c4)CC3)CC2)CC1 (stereo not drawn) [Example 269, 3-(4-(4-(2-(4-(1-(4-((5-chloro-4-((5-(dimethylphosphoryl)quinoxalin-6-yl)amino)pyrimidin-2-yl)amino)-2-ethyl-5-methoxyphenyl)piperidin-4-yl)piperazin-1-yl)ethyl)piperidin-1-yl)-2,6-difluorophenyl)piperidine-2,6-dione] | 88.8 | 43.7 | 21.5 | 95.39 |
| CCc1cc(Nc2ncc(Br)c(Nc3ccc4nc(C)ccc4c3P(C)(C)=O)n2)c(OC)cc1N1CCC(N2CCN(CCN(C)c3cccc4c3CN(C3CCC(=O)NC3=O)C4=O)CC2)CC1 (stereo not drawn) [Example 256, 3-(4-((2-(4-(1-(4-((5-bromo-4-((5-(dimethylphosphoryl)-2-methylquinolin-6-yl)amino)pyrimidin-2-yl)amino)-2-ethyl-5-methoxyphenyl)piperidin-4-yl)piperazin-1-yl)ethyl)(methyl)amino)-1-oxoisoindolin-2-yl)piperidine-2,6-dione] | 91.8 | 7.84 | 1.78 | 94.38 |

Continued, in another order:

| Dmax [1] [%] | DC50 [1] [nM] | DC50 [2] [nM] | SMILES | DTC Dmax (%) [2] [%] |
| --- | --- | --- | --- | --- |
| 91 | 12.4 | 2.7 | CCc1cc(Nc2ncc(Br)c(Nc3ccc4c(=O)n(C)ncc4c3P(C)(C)=O)n2)c(OC)cc1N1CCC(N2CCN(CCc3cc(F)c(C4CCC(=O)NC4=O)c(F)c3)CC2)CC1 (stereo not drawn) [Example 431, 3-(4-(2-(4-(1-(4-((5-bromo-4-((5-(dimethylphosphoryl)-2-methyl-1-oxo-1,2-dihydrophthalazin-6-yl)amino)pyrimidin-2-yl)amino)-2-ethyl-5-methoxyphenyl)piperidin-4-yl)piperazin-1-yl)ethyl)-2,6-difluorophenyl)piperidine-2,6-dione] | 97.96 |
| 89.8 | 7.08 | 4.3 | CCc1cc(Nc2ncc(Br)c(Nc3ccc4nc(C)ccc4c3P(C)(C)=O)n2)c(OC)cc1N1CCC(N2CCN(CCc3cc(F)c(C4CCC(=O)NC4=O)c(F)c3)C[C@@H]2C)CC1 (stereo partly drawn) [Example 715, 3-(4-(2-((S)-4-(1-(4-((5-bromo-4-((5-(dimethylphosphoryl)-2-methylquinolin-6-yl)amino)pyrimidin-2-yl)amino)-2-ethyl-5-methoxyphenyl)piperidin-4-yl)-3-methylpiperazin-1-yl)ethyl)-2,6-difluorophenyl)piperidine-2,6-dione] | 92.57 |
| 76 | 248 | 152 | CCc1cc(Nc2ncc(Br)c(Nc3ccc4nccnc4c3P(C)(C)=O)n2)c(OC)cc1N1CCC(N2CCN(CCc3ccc(C4(C)CCC(=O)NC4=O)cc3)CC2)CC1 (stereo not drawn) [Example 280, 3-(4-(2-(4-(1-(4-((5-bromo-4-((5-(dimethylphosphoryl)quinoxalin-6-yl)amino)pyrimidin-2-yl)amino)-2-ethyl-5-methoxyphenyl)piperidin-4-yl)piperazin-1-yl)ethyl)phenyl)-3-methylpiperidine-2,6-dione] | 68.21 |
| 93 | 4.24 | 1.19 | CCc1cc(Nc2ncc(Br)c(Nc3ccc4nc(C)ccc4c3P(C)(C)=O)n2)c(OC)cc1N1CCC(N2CCN(C(=O)CNc3cc(F)c(C4CCC(=O)NC4=O)c(F)c3)CC2)CC1 (stereo not drawn) [Example 432, 3-(4-((2-(4-(1-(4-((5-bromo-4-((5-(dimethylphosphoryl)-2-methylquinolin-6-yl)amino)pyrimidin-2-yl)amino)-2-ethyl-5-methoxyphenyl)piperidin-4-yl)piperazin-1-yl)-2-oxoethyl)amino)-2,6-difluorophenyl)piperidine-2,6-dione] | 94.91 |
| 90.4 | 21.9 | 3.98 | CCc1cc(Nc2ncc(Br)c(Nc3ccc4nc(C)ccc4c3P(C)(C)=O)n2)c(OC)cc1N1CCC(N2CCN(CCCOc3cc(F)c(C4CCC(=O)NC4=O)c(F)c3)CC2)CC1 (stereo not drawn) [Example 704, 3-(4-(3-(4-(1-(4-((5-bromo-4-((5-(dimethylphosphoryl)-2-methylquinolin-6-yl)amino)pyrimidin-2-yl)amino)-2-ethyl-5-methoxyphenyl)piperidin-4-yl)piperazin-1-yl)propoxy)-2,6-difluorophenyl)piperidine-2,6-dione] | 82.31 |
| 91.4 | 17.1 | 5.98 | CCc1cc(Nc2ncc(Br)c(Nc3ccc4nc(C)ccc4c3P(C)(C)=O)n2)c(OC)cc1N1CCC(N2CCN([C@H]3C[C@@H](c4cc(F)c(C5CCC(=O)NC5=O)c(F)c4)C3)CC2)CC1 (stereo partly drawn) [Example 717, 3-(4-((1s,3s)-3-(4-(1-(4-((5-bromo-4-((5-(dimethylphosphoryl)-2-methylquinolin-6-yl)amino)pyrimidin-2-yl)amino)-2-ethyl-5-methoxyphenyl)piperidin-4-yl)piperazin-1-yl)cyclobutyl)-2,6-difluorophenyl)piperidine-2,6-dione] | 94.13 |
| 96 | 24.3 | 15.9 | CCc1cc(Nc2ncc(Br)c(Nc3ccc4nccnc4c3P(C)(C)=O)n2)c(OC)cc1N1CCC(N2CCN(C(=O)CC3CCN(c4cc(F)c(C5CCC(=O)NC5=O)c(F)c4)CC3)CC2)CC1 (stereo not drawn) [Example 274, 3-(4-(4-(2-(4-(1-(4-((5-bromo-4-((5-(dimethylphosphoryl)quinoxalin-6-yl)amino)pyrimidin-2-yl)amino)-2-ethyl-5-methoxyphenyl)piperidin-4-yl)piperazin-1-yl)-2-oxoethyl)piperidin-1-yl)-2,6-difluorophenyl)piperidine-2,6-dione] | 89.85 |

— US20230265116A1, “DEGRADATION OF (EGFR) BY CONJUGATION OF EGFR INHIBITORS WITH E3 LIGASE LIGAND AND METHODS OF USE” (BEIGENE, LTD., priority 2020, published 2023)
